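Compound exposure: 48 hours, 5 concentrations, 96-well plates. GI50 marks 50% less growth.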 Active and inactive are the calls of the source. Rule as the data show it: active = GI50 up to about 1.1 µM and inactive = higher. Where only a bound is given, the exact number is not on record here.

Test systems include 786-0; HCT-116; T47D; OVCAR-5; OVCAR-3; NCI-H23; SK-MEL-5; NCI-H226; LOX IMVI; EKVX; SNB-19; K562; Hs-578T; MOLT-4; RXF 393; COLO 205; SF-539; A498; NCI-H460.
Common to all, as to assay: NCI tumour cell line growth inhibition, 48 h

For `CCCCCCCCCCCCCCCC[N+](C)(C)Cc1ccc(F)cc1`, the GI50 in the assay with 786-0 is 1.47 µM (inactive); in the assay on HCT-116, 1.48 µM (inactive); in the assay with T47D, 3.33 µM (inactive); in the assay on OVCAR-5 it was 1.83 µM (inactive); in the assay with OVCAR-3, 1.94 µM (inactive); in the assay with NCI-H23, 2.16 µM (inactive). Moreover, the GI50 with SK-MEL-5 is 1.75 µM (inactive); in the assay with NCI-H226, 2.15 µM (inactive); with LOX IMVI, 1.47 µM (inactive); with EKVX, 2 µM (inactive); with SNB-19, 1.66 µM (inactive); in the assay on K562, 1.26 µM (inactive). In addition, the GI50 in the assay on Hs-578T was 1.89 µM (inactive); with MOLT-4 it was 1.46 µM (inactive); in the assay on RXF 393, 1.11 µM (active); in the assay with COLO 205, 1.61 µM (inactive); with SF-539, 1.29 µM (inactive); with A498 it was 26.2 µM (inactive). The GI50 in the assay on NCI-H460 was 1.44 µM (inactive).

Regarding `CN(C1=NS(=O)(=O)N=C(N(C)c2ccccc2)O1)c1ccccc1`, the GI50 in the assay with 786-0 is 24.9 µM (inactive); with HCT-116, 13.7 µM (inactive); in the assay with T47D it was 21.2 µM (inactive); with OVCAR-5, 23.1 µM (inactive); in the assay on OVCAR-3 it was 20.3 µM (inactive); in the assay on NCI-H23, 11.5 µM (inactive). Also, the GI50 in the assay with SK-MEL-5 was 7.66 µM (inactive); in the assay on NCI-H226 it was 14.9 µM (inactive); with LOX IMVI, 13.3 µM (inactive); in the assay with EKVX it was 22.2 µM (inactive); with SNB-19 it was 18.7 µM (inactive); in the assay with K562, 17.7 µM (inactive). In addition, the GI50 is 27.7 µM (inactive) in the assay on Hs-578T; 27.4 µM (inactive) in the assay on MOLT-4; 3.55 µM (inactive) with RXF 393; 21.8 µM (inactive) with COLO 205; 21.6 µM (inactive) in the assay with SF-539; 20.5 µM (inactive) in the assay with A498. In the assay on NCI-H460, the GI50 was 21.8 µM (inactive).

For `O=S(=O)(NNc1ccccc1)c1ccccc1`, the GI50 with 786-0 was 52.6 µM (inactive); with HCT-116, 13.2 µM (inactive); with T47D, 12.6 µM (inactive); in the assay on OVCAR-5, 17.1 µM (inactive); in the assay with OVCAR-3 it was 11.3 µM (inactive); in the assay with NCI-H23, 25.5 µM (inactive). Besides, the GI50 was 2.1 µM (inactive) in the assay on SK-MEL-5; 4.12 µM (inactive) with NCI-H226; 0.834 µM (active) in the assay with LOX IMVI; 14.4 µM (inactive) in the assay on EKVX; 39.7 µM (inactive) with SNB-19; 4.23 µM (inactive) in the assay on K562. Moreover, the GI50 with Hs-578T is 61 µM (inactive); with MOLT-4, 26.5 µM (inactive); in the assay on RXF 393 it was 7.73 µM (inactive); in the assay on COLO 205 it was 8.99 µM (inactive); with SF-539 it was 32.7 µM (inactive); in the assay on A498, 81.5 µM (inactive). Also, the GI50 with NCI-H460 was 3.96 µM (inactive).

Consider `CCOC(=O)/C=C\[C@H]1OC(C)(C)O[C@H]1[C@H](O)[C@H]1COC(C)(C)O1`, for which the GI50 was 19.4 µM (inactive) with 786-0; 19.7 µM (inactive) with HCT-116; 20.5 µM (inactive) with T47D; 17.1 µM (inactive) in the assay on OVCAR-5; 17.4 µM (inactive) in the assay with OVCAR-3; 21.7 µM (inactive) in the assay with NCI-H23. In addition, the GI50 in the assay on SK-MEL-5 was 18.2 µM (inactive); with NCI-H226, > 100 µM (inactive); in the assay with LOX IMVI, 20 µM (inactive); in the assay with EKVX, 21.1 µM (inactive); with SNB-19, > 100 µM (inactive); in the assay on K562, 10.4 µM (inactive). Further, the GI50 in the assay with Hs-578T was 26.8 µM (inactive); in the assay on MOLT-4, 19.2 µM (inactive); in the assay on RXF 393 it was 20 µM (inactive); in the assay on COLO 205 it was 15.8 µM (inactive); with SF-539, 17.7 µM (inactive); with A498, 16.6 µM (inactive). In the assay on NCI-H460, the GI50 was 27 µM (inactive).

In the case of `C=C(Cl)COC(=O)Nc1cccc(Cl)c1`, the GI50 was 27.4 µM (inactive) in the assay with 786-0; 27 µM (inactive) in the assay on HCT-116; 22.9 µM (inactive) in the assay on T47D; 48.2 µM (inactive) in the assay on OVCAR-5; 28.1 µM (inactive) in the assay on OVCAR-3; 30.4 µM (inactive) in the assay with NCI-H23. Further, the GI50 in the assay with SK-MEL-5 is 18 µM (inactive); in the assay on NCI-H226, 44.8 µM (inactive); in the assay with LOX IMVI, 35.6 µM (inactive); in the assay with EKVX, 22.5 µM (inactive); in the assay on SNB-19, 35.6 µM (inactive); in the assay with K562, 54.6 µM (inactive). Moreover, the GI50 was 34 µM (inactive) with Hs-578T; 57.5 µM (inactive) with MOLT-4; 25 µM (inactive) in the assay on RXF 393; 31.7 µM (inactive) in the assay on COLO 205; 54.8 µM (inactive) in the assay on SF-539; 23.4 µM (inactive) in the assay with A498. Also, in the assay with NCI-H460, the GI50 is 32.6 µM (inactive).

Take `CC(=O)Nc1cc(/C=C\C(=O)N2CC(CCl)c3c2cc(N)c2ccccc32)n(C)n1` (stereo not given): the GI50 with 786-0 was 0.00143 µM (active); with HCT-116, 0.00149 µM (active); in the assay on T47D, 0.00299 µM (active); in the assay on OVCAR-5 it was 0.0215 µM (active); in the assay with OVCAR-3, 0.0164 µM (active); with NCI-H23, 0.00192 µM (active). The GI50 with SK-MEL-5 was 0.00269 µM (active); with NCI-H226, 0.00805 µM (active); with LOX IMVI it was 0.00879 µM (active); with EKVX it was 0.0251 µM (active); in the assay on SNB-19, 0.0386 µM (active); with K562, 0.00417 µM (active). Further, the GI50 was 0.0543 µM (active) in the assay on Hs-578T; 0.00201 µM (active) with MOLT-4; < 0.001 µM (active) in the assay on RXF 393; 0.0235 µM (active) with COLO 205; 0.00621 µM (active) with SF-539; 0.00373 µM (active) with A498. Moreover, in the assay with NCI-H460, the GI50 was < 0.001 µM (active).

Turning to `CN(C(=O)c1ccc(Cl)s1)C(=S)N(C)C(=O)c1ccc(Cl)s1`, the GI50 with 786-0, in the assay with HCT-116, in the assay with T47D, with OVCAR-5, with OVCAR-3 and with NCI-H23 was > 10 µM (inactive) each time. Also, the GI50 in the assay with SK-MEL-5, in the assay on NCI-H226, with LOX IMVI, in the assay on EKVX, in the assay with SNB-19 and with K562 was > 10 µM (inactive) in each case. Moreover, the GI50 in the assay on Hs-578T, with MOLT-4, in the assay on RXF 393, in the assay on COLO 205, in the assay on SF-539 and in the assay with A498 was > 10 µM (inactive) throughout. Further, the GI50 with NCI-H460 is > 10 µM (inactive).

Take `CC(=O)N(O)[C@@H]1CC[C@H](n2cnc3c(N)ncnc32)C1`: the GI50 in the assay with 786-0, in the assay with HCT-116, in the assay on T47D, in the assay on OVCAR-5, in the assay with OVCAR-3 and with NCI-H23 was > 100 µM (inactive) throughout. The GI50 with SK-MEL-5, in the assay with NCI-H226, in the assay on LOX IMVI, with EKVX, in the assay on SNB-19 and with K562 was > 100 µM (inactive) throughout. Also, the GI50 with Hs-578T, in the assay on MOLT-4, in the assay on RXF 393, with COLO 205, in the assay on SF-539 and in the assay with A498 was > 100 µM (inactive) in each case. Moreover, the GI50 in the assay with NCI-H460 is > 100 µM (inactive).

In the case of `c1ccc(C2C3=C(CCCC3)Nc3nc4cc5ccccc5cc4n32)cc1` (stereo not given), the GI50 in the assay on 786-0, in the assay on HCT-116, with T47D, in the assay with OVCAR-5, in the assay with OVCAR-3 and with NCI-H23 was > 100 µM (inactive) each time. In addition, the GI50 in the assay with SK-MEL-5, in the assay on NCI-H226, in the assay on LOX IMVI, in the assay with EKVX, in the assay with SNB-19 and in the assay on K562 was > 100 µM (inactive) in each case. In addition, the GI50 in the assay on Hs-578T, with MOLT-4, in the assay with RXF 393, in the assay with COLO 205, in the assay on SF-539 and in the assay with A498 was > 100 µM (inactive) in each case. Further, the GI50 in the assay on NCI-H460 was > 100 µM (inactive).

In the case of `O=C1C=CC(=O)c2c(O)c(N(CCCl)CCCl)c(Cl)c(O)c21`, the GI50 was 4.54 µM (inactive) in the assay on 786-0; 4.26 µM (inactive) in the assay on HCT-116; 4.71 µM (inactive) in the assay on T47D; > 7.21 µM (inactive) in the assay on OVCAR-5; 4.74 µM (inactive) in the assay on OVCAR-3; 5.07 µM (inactive) in the assay on NCI-H23. Also, the GI50 is 4.59 µM (inactive) in the assay with SK-MEL-5; > 9.66 µM (inactive) with NCI-H226; 4.49 µM (inactive) in the assay on LOX IMVI; > 8.91 µM (inactive) with EKVX; > 10 µM (inactive) in the assay on SNB-19; 4.79 µM (inactive) in the assay on K562. The GI50 in the assay with Hs-578T was 6.25 µM (inactive); in the assay on MOLT-4 it was > 5.31 µM (inactive); in the assay on RXF 393, > 5.2 µM (inactive); with COLO 205, 3.94 µM (inactive); in the assay with SF-539, 5.24 µM (inactive); with A498, 6.15 µM (inactive). Moreover, in the assay with NCI-H460, the GI50 is 5.02 µM (inactive).
